Test results as given in the NIST ThermoML archive (doi:10.1016/j.jct.2006.05.008).

Test: molar heat capacity at constant pressure
Conditions: 101.33 kPa, Small (less than 1 g) adiabatic calorimetry

CCCCn1cc[n+](C)c1.[Br-] [1-butyl-3-methylimidazolium bromide]
Conditions | molar heat capacity at constant pressure [J/K/mol]
122.75 K, Glass | 139.07
123.63 K, Crystal | 131.11
124.78 K, Glass | 140.32
125.66 K, Crystal | 132.08
126.82 K, Glass | 141.79
127.7 K, Crystal | 133.1
128.85 K, Glass | 143.22
129.73 K, Crystal | 134.32
130 K, Crystal | 134.3
130.89 K, Glass | 144.53
131.77 K, Crystal | 135.36
132.93 K, Glass | 145.61
133.82 K, Crystal | 136.37
134.98 K, Glass | 147.16
135.86 K, Crystal | 137.63
137.02 K, Glass | 148.47
137.9 K, Crystal | 138.69
139.07 K, Glass | 149.68
139.95 K, Crystal | 139.77
140 K, Crystal | 139.7
141.11 K, Glass | 150.96
142 K, Crystal | 140.95
143.16 K, Glass | 152.33
144.05 K, Crystal | 142.17
145.21 K, Glass | 153.64
146.11 K, Crystal | 143.29
147.27 K, Glass | 154.99
148.17 K, Crystal | 144.04
149.33 K, Glass | 156.22
150 K, Crystal | 145.1
150.23 K, Crystal | 145.16
151.38 K, Glass | 157.56
152.28 K, Crystal | 146.48
153.44 K, Glass | 158.85
154.34 K, Crystal | 147.77
155.5 K, Glass | 160.15
156.4 K, Crystal | 148.83
157.55 K, Glass | 161.46
158.47 K, Crystal | 149.86
159.61 K, Glass | 162.88
160 K, Crystal | 150.5
160.53 K, Crystal | 151.03
161.68 K, Glass | 164.21
162.59 K, Crystal | 152.18
163.74 K, Glass | 165.38
164.66 K, Crystal | 153.33
165.8 K, Glass | 166.7
166.73 K, Crystal | 154.42
167.87 K, Glass | 168.08
168.79 K, Crystal | 155.67
169.93 K, Glass | 169.45
170 K, Crystal | 156
170.86 K, Crystal | 156.71
172 K, Glass | 170.75
172.93 K, Crystal | 157.83
174.07 K, Glass | 172.09
175 K, Crystal | 159
176.14 K, Glass | 173.39
177.07 K, Crystal | 160.17
178.21 K, Glass | 174.81
179.15 K, Crystal | 161.41
180 K, Crystal | 161.6
180.29 K, Glass | 176.19
181.23 K, Crystal | 162.53
182.37 K, Glass | 177.61
183.3 K, Crystal | 163.73
184.44 K, Glass | 178.88
185.38 K, Crystal | 164.89
186.51 K, Glass | 180.34
187.45 K, Crystal | 166.26
188.59 K, Glass | 181.72
189.53 K, Crystal | 167.35
190 K, Crystal | 167.4
190.66 K, Glass | 183.15
191.61 K, Crystal | 168.45
192.74 K, Glass | 184.62
193.69 K, Crystal | 169.62
194.82 K, Glass | 186.01
195.77 K, Crystal | 170.97
196.9 K, Glass | 187.63
197.85 K, Crystal | 172.33
198.98 K, Glass | 189.28
199.93 K, Crystal | 173.55
200 K, Crystal | 173.4
201.07 K, Glass | 191
202.01 K, Crystal | 174.87
203.15 K, Glass | 192.74
204.09 K, Crystal | 176.17
205.24 K, Glass | 194.6
206.18 K, Crystal | 177.52
207.34 K, Glass | 196.57
208.26 K, Crystal | 178.87
209.44 K, Glass | 199.14
